Experimental data taken from patent US20240148895A1, “ANTIBODY-DRUG CONJUGATE” (Eisai R&D Management Co., Ltd., priority 2022, published 2024).

Legend:
BRD4(BD1+BD2) protein = molecular target: T1, BRD4(BD1+BD2) protein (Homo sapiens, UniProt O60885); test: BRD4 binding inhibition assay (TR-FRET); conditions: BRD4(BD1+BD2) TR-FRET Assay Kit, reaction 2 hours at room temperature; read-out: IC50 (concentration necessary for 50% inhibition of BRD4 binding activity)
T1 construct: 5 μL of BRD4(BD1+BD2) protein solution prepared to 3.6 ng/μL; purchased BPS Bioscience Inc. 32612
Protocol: This assay measures binding inhibition activity of the test substance on the bromodomain of BRD4 protein.
BRD4 binding inhibition activity assay was carried out using a BRD4(BD1+BD2)TR-FRET Assay Kit (BPS Bioscience Inc. Catalog #32612), according to the attached instructions. In a flat-bottom 384-well white plate (Greiner 781080) there was added 8 μL of Tb-labeled donor/dye-labeled acceptor solution diluted 160-fold with 1×BRD TR-FRET Assay Buffer1, with 5 μL of BET Bromodomain Ligand diluted 40-fold with 1×BRD TR-FRET Assay Buffer1 in the test substance measuring wells and the Positive Control wells, and 5 μL of Non-acetylated Ligand1 diluted 40-fold with 1×BRD TR-FRET Assay Buffer1 in the Negative Control wells. After adding 2 μL of test substance diluted with 1×BRD TR-FRET Assay Buffer1 to the test substance measuring wells, and 2 μL of Dimethyl Sulfoxide solution diluted 100-fold with 1×BRD TR-FRET Assay Buffer1 to the Positive Control wells and Negative Control wells, 5 μL of BRD4(BD1+BD2) protein solution prepared to 3.6 ng/μL with 1×BRD TR-FRET Assay Buffer1 was added and reaction was conducted for 2 hours at room temperature. The fluorescence intensity was measured at 620 nm and 665 nm with irradiation of 340 nm excitation light into each well, using an Envision™ (Perkin-Elmer). The ratio of fluorescence intensity at […] with respect to fluorescence intensity at 620 nm for each well was recorded as the TR-FRET ratio, and the TR-FRET ratio in the presence of the test substance was calculated with the Positive Control well value as 100%, subtracting the Negative Control well value. The concentration of test substance necessary for 50% inhibition of BRD4 binding activity (IC50) was calculated from the TR-FRET ratio, and shown in Table 1.

AsPC-1/Cas9 cell line = test: AsPC-1/Cas9 growth inhibition assay; format: cell-based, human; conditions: Homo sapiens, ASPC1, 120 h, AsPC-1/Cas9 cells, 5 days culture, CellTiter Glo 2.0; read-out: Absolute IC50—Day 5 (nM) AsPC-1 Cas9
Protocol: The human pancreatic cancer cell line AsPC-1 (ATCC Number CRL1682) was infected with Edit-R Lentiviral hCMV-Blast-Cas9 Nuclease Particle (Dharmacon, VCAS10124) in the presence of 8 μg/ml of Hexadimethrine bromide (Sigma, H9268), and after 24 hours it was exposed to 10 μg/ml of Blastcidin S (Thermo, A11139) to remove the uninfected cells, thereby establishing an AsPC-1/Cas9 cell line. The cells were maintenance cultured in a 5% CO2 incubator (37° C.) using RPMI-1640 (FujiFilm-Wako Pure Chemical Industries) containing 10% fetal bovine serum (FBS: SIGMA 173012) and penicillin/streptomycin (FujiFilm-Wako Pure Chemical Industries) (hereunder referred to simply as “culture medium”). After adding 45 μL of AsPC-1/Cas9 cell suspension prepared to 2.0×10^4 cells/mL using culture medium into each well of a 384-well plate (Greiner 781091), the cells were cultured overnight in a 5% CO2 incubator (37° C.). On the following day, 5 μL of the test substance diluted with culture medium was added to each well, and culturing was continued for 5 days in a 5% CO2 incubator (37° C.). Next, 25 μL of CellTiter Glo™ 2.0 (Promega) was added to each well, and the plate contents were mixed for 5 minutes using a plate mixer. The plate was stationed for 10 minutes at room temperature while shielded from light, and then the luminous intensity was measured with an ENVISION™ (Perkin-Elmer). The luminescence value of the wells with addition of test substance was determined as a relative value, with 100% as the luminescence value of the wells with cells but without addition of the test substance, and 0% as the luminescence value of the wells without cells. A plot of test substance concentration against luminescence value % approximated a 4-parameter logistic curve, and the test substance concentration necessary for 50% inhibition of cell growth (Absolute IC50) was calculated, and is shown in Table 4.

[1] = molecular target: HiBiT tagged BRD4-BD1 protein in HEK293/LgBiT/hPGK/HiBiT-BRD4-BD1 cells (Homo sapiens, UniProt O60885); test: BET BD1 domain degradation assay; format: cell-based; set-up: HiBit-linker-BRD4 BD1(1-209); host or cells: HEK293 (ATCC CRL-1573) stably transduced with LgBiT and HiBiT-BRD4-BD1; conditions: concentration for 50% reduction in HiBiT-BRD4-BD1 protein level, 3 hours, read-out: Absolute DC50—3 h (nM) HEK293_HiBiT-BRD4-BD1
From the text: HEK293/LgBiT/hPGK/HiBiT-BRD4-BD1 cells were established by introducing LgBiT and HiBiT-BRD4-BD1 into the human fetus renal cell line HEK293 (ATCC Number CRL-1573). LgBiT was introduced using lentivirus vector LV[Exp]-Bsd-EFS>{LgBiT}, and HiBiT-BRD4-BD1 was introduced with lentivirus vector LV[Exp]-Puro-hPGK>{HiBit-linker-BRD4 BD1(1-209)}. The vector plasmids LV[Exp]-Bsd-EFS>{LgBiT} and LV[Exp]-Puro-hPGK>{HiBit-linker-BRD4_BD1(1-209)} were constructed by VectorBuilder Co. The lentivirus was produced using a Mission Lentivirus Packaging Mix (Sigma) according to the manufacturer's protocol. Viral infection and drug selection of infected cells were carried out by the following published method (Akagi T. et. al, PNAS 2003; 100:13567-72). The cells were maintenance cultured in a 5% CO2 incubator (37° C.), using culture medium. A 45 μL portion of cell suspension of HEK293/LgBiT/hPGK/HiBiT-BRD4-BD1 cells prepared to 6.7×10^4 cells/mL using culture medium was added to each well of a collagen I-coated 384-well plate (Falcon 356667), and the cells were cultured overnight in a 5% CO2 incubator (37° C.). On the following day, 5 μL of test substance diluted with RPMI-1640 (FujiFilm-Wako Pure Chemical Industries) containing 10% fetal bovine serum (FBS: SIGMA 173012) and penicillin/streptomycin (FujiFilm-Wako Pure Chemical Industries) was added to each well, and culturing was continued for 3 hours in a 5% CO2 incubator (37° C.). The luminous intensity was measured using a Nono-Glo HiBiT Lytic Detection System (Promega), and the intracellular HiBiT tagged BRD4-BD1 protein level was calculated. After culturing, 25 μL of measuring reagent was added to each well and the plate contents were mixed for 5 minutes using a plate mixer. The plate was stationed for 10 minutes at room temperature while shielded from light, and then the luminous intensity was measured with an ENVISION′ (Perkin-Elmer). The luminescence value of the wells with addition of test substance was determined as a relative value, with 100% as the luminescence value of the wells with cells but without addition of the test substance, and 0% as the luminescence value of the wells without cells. A plot of test substance concentration against luminescence value % approximated a 4-parameter logistic curve, and the test substance concentration necessary for 50% reduction in protein level (Absolute DC50) was calculated and is shown in Table 4.

Row | Compound | IC50 (BRD4(BD1+BD2) protein) [nM] | IC50 (AsPC-1/Cas9 cell line) [nM] | DC50 [1] [nM]
1 | Cc1cc(-c2ccc3nc(N)nc(C(CO)(OC4CC4)c4ccccc4)c3c2)cn(C)c1=O (centres unmarked) [Example 2, 5-(2-Amino-4-(1-cyclopropoxy-2-hydroxy-1-phenylethyl)quinazolin-6-yl)-1,3-dimethylpyridin-2(1H)-one] | 26 |  | 
2 | COc1ccc(C(=O)NC2(C)CCN(C3CCN(c4nc(C(CO)(CC(C)C)c5cccs5)c5cc(-c6cn(C)c(=O)c7[nH]ccc67)ccc5n4)CC3)CC2)cc1N1CCC(=O)NC1=O (centres unmarked) [Example 125, 3-(2,4-Dioxotetrahydropyrimidine-1(2H)-yl)-N-(1′-(4-(1-hydroxy-4-methyl-2-(thiophen-2-yl)pentan-2-yl)-6-(6-methyl-7-oxo-6,7-dihydro-1H-pyrrolo[2,3-c]pyridin-4-yl)quinazolin-2-yl)-4-methyl-[1,4′-bipiperidin]-4-yl)-4-methoxybenzamide] |  | 0.2 | 0.19
3 | CCCC(CO)(CCC)c1nc(N2CCC(OC3CCN(C(=O)c4ccc(OC)c(N5CCC(=O)NC5=O)c4)CC3)CC2)nc2ccc(-c3cn(C)c(=O)cc3OC)cc12 [Example 126, 1-(5-(4-((1-(4-(4-(Hydroxymethyl)heptan-4-yl)-6-(4-methoxy-1-methyl-6-oxo-1,6-dihydropyridin-3-yl)quinazolin-2-yl)piperidin-4-yl)oxy)piperidine-1-carbonyl)-2-methoxyphenyl)dihydropyrimidine-2,4(1H,3H)-dione] |  | 0.084 | 0.05
4 | Cc1ccc(C(=O)N2C[C@H](C)N(C3CCN(c4nc(C(CO)(OC5CC5)c5cccc(O)c5)c5cc(-c6cn(C)c(=O)c7[nH]ccc67)ccc5n4)CC3)C[C@H]2C)cc1N1CCC(=O)NC1=O (stereo partly drawn) [Example 127, 1-(5-((2R,5S)-4-(1-(4-(1-Cyclopropoxy-2-hydroxy-1-(3-hydroxyphenyl)ethyl)-6-(6-methyl-7-oxo-6,7-dihydro-1H-pyrrolo[2,3-c]pyridin-4-yl)quinazolin-2-yl)piperidin-4-yl)-2,5-dimethylpiperazine-1-carbonyl)-2-methylphenyl)dihydropyrimidine-2,4-(1H,3H)-dione] |  | 0.17 | 0.6
5 | COc1ccc(C(=O)NC2(C)CCN(C3CCN(c4nc(C(CO)(OC5CC5)c5cccc6ccccc56)c5cc(-c6cn(C)c(=O)c7[nH]ccc67)ccc5n4)CC3)CC2)cc1N1CCC(=O)NC1=O (centres unmarked) [Example 128, N-(1′-(4-(1-Cyclopropoxy-2-hydroxy-1-(naphthalen-1-yl)ethyl)-6-(6-methyl-7-oxo-6,7-dihydro-1H-pyrrolo[2,3-c]pyridin-4-yl)quinazolin-2-yl)-4-methyl-[1,4′-bipiperidin]-4-yl)-3-(2,4-dioxotetrahydropyrimidine-1(2H)-yl)-4-methoxybenzamide] |  | 0.32 | 0.25
6 | COc1ccc(-n2cc(CN3CCN(CC4CCN(c5nc(C(CO)(OC6CC6)c6ccccc6)c6cc(-c7cc(C)c(=O)n(C)c7)ccc6n5)CC4)CC3)nn2)cc1N1CCC(=O)NC1=O (centres unmarked) [Example 130, 1-(5-(4-((4-((1-(4-(1-Cyclopropoxy-2-hydroxy-1-phenylethyl)-6-(1,5-dimethyl-6-oxo-1,6-dihydropyridin-3-yl)quinazolin-2-yl)piperidin-4-yl)methyl)piperazin-1-yl)methyl)-1H-1,2,3-triazol-1-yl)-2-methoxyphenyl)-dihydropyrimidine-2,4(1H,3H)-dione] |  | 0.98 | 0.19
7 | COc1ccc(C#CCNC2(C)CCN(C3CCN(c4nc([C@@](COCNC(=O)[C@H](CC(N)=O)NC(C)=O)(OC5CC5)c5ccccc5)c5cc(-c6cn(C)c(=O)c7[nH]ccc67)ccc5n4)CC3)CC2)cc1N1CCC(=O)NC1=O [Example 131] |  | 4.5 | 11
8 | COc1ccc(C#CCNC2(C)CCN(C3CCN(c4nc([C@@](CO)(OC5CC5)c5ccccc5)c5cc(-c6cn(C)c(=O)c7[nH]ccc67)ccc5n4)CC3)CC2)cc1N1CCC(=O)N(CNC(=O)[C@H](CC(=O)O)NC(C)=O)C1=O [Example 138, (S)-3-Acetamide-4-(((3-(5-(3-((1′-(4-((S)-1-cyclopropoxy-2-hydroxy-1-phenylethyl)-6-(6-methyl-7-oxo-6,7-dihydro-1H-pyrrolo[2,3-c]pyridin-4-yl)quinazolin-2-yl)-4-methyl-[1,4′-bipiperidin]-4-yl)amino)prop-1-yn-1-yl)-2-methoxyphenyl)-2,6-dioxotetrahydropyrimidine-1(2H)-yl)methyl)amino)-4-oxobutanoic acid] |  | 41 | > 100
9 | COc1ccc(C#CCNC2(C)CCN(C3CCN(c4nc(C(CO)(OC5CC5)c5ccccc5)c5cc(-c6cn(C)c(=O)c7[nH]ccc67)ccc5n4)CC3)CC2)cc1N1CCC(=O)NC1=O (centres unmarked) [Example 144, 1-(5-(3-((1′-(4-(1-Cyclopropoxy-2-hydroxy-1-phenylethyl)-6-(6-methyl-7-oxo-6,7-dihydro-1H-pyrrolo[2,3-c]pyridin-4-yl)quinazolin-2-yl)-4-methyl-[1,4′-bipiperidin]-4-yl)amino)prop-1-yn-1-yl)-2-methoxyphenyl)dihydropyrimidine-2,4(1H,3H)-dione] |  | 0.13 | 0.11
